From patent publication US20090208981A1, “Method for Analysis of Interaction Between Small Molecules and Cells and Apparatus thereof” (priority 2005, published 2009)

Tested on: peripheral blood mononuclear cell (PBMC)
Experiment: Cell chromatography retention time of drug-treated PBMC on polystyrene column (150 mm×10 mm), detection at 500 nm
Type: cell-based
Conditions: PBMC treated with 10 μg/ml for 2 minutes; PBS pH 7.4, 1 ml/min; un-treated control about 7.7 minutes; FIG. 3
Protocol: In this example, the column used for analysis of the interaction between small molecule and cell has an inner diameter of 10 mm, a length of 150 mm and a volume of 11.8 ml (150 mm×10 mm). This column was packed with resin particles (size: 1 or 2 millimeter; material: polystyrene) and was washed first and thereafter, filled with a phosphate buffered saline (PBS).
The method is similar as described as above. Whole Blood was separated first by centrifugation using dextran cell separation medium (Ficoll) to yield peripheral blood mononuclear cell (PBMC). Then PBMC was diluted with phosphate buffered saline (PBS) into a cell suspension at concentration of 1×10^6 cells/ml.
Lectin: treated PBMC by 10 μg/ml lectin for two minutes;
Shikonin: treated PBMC by 10 μg/ml shikonin for two minutes.
The cell suspension was added with lectin or shikonin at a concentration of 10 μg/ml (lectin treated group or shikonin treated group). After reacting for 2 minutes, drug-treaded group or un-treated group (control) was loaded on the upper frontier of the column (150 mm×10 mm) respectively, and after adding PBS (pH 7.4) to a level of a pre-determined height, the column was eluted with PBS (pH 7.4) at a steady flow rate of 1 ml/min provided under the action of a pump and integrated with a spectrophotometer, which eluted cells were continuously detected with a wavelength of 500 nm. […]

`CC(C)=CC[C@@H](O)C1=CC(=O)c2c(O)ccc(O)c2C1=O` [shikonin] was tested, and the “retention time of treated cell in the column” value was 6.5 min.
